Reference: patent publication US10106588B2, “Nucleic acids encoding peptides for treating wounds, anti-angiogenic compounds and uses thereof” (Trustees of Tufts College, priority 2008, dated 2018)
Where no end group is shown, it is not given here.

Columns and labels:
[1] = system: Normal Human Epithelial Keratinocyte (NHEK); assay: in vitro response to injury: keratinocyte migration / relative wound closure; type: cell-based; conditions: for relative wound closure via NHEK migration: 0.5 nM of each peptide, compared to control (FIG. 4); for keratinocyte migration in response to injury in vitro: general statement, no concentration
Description: FIG. 4 is a graph illustrating a measure of relative wound closure via Normal Human Epithelial Keratinocyte (NHEK) migration after exposure to 0.5 nM of each of the peptides of SEQ ID NOs: 1, 2, and 3 (“UN1,” “UN2,” and “UN3” respectively).
(§1) Each of the three peptide sequences were then analyzed for activity via (1) in vitro angiogenesis assays where blood vessel formation in vitro was quantified; (2) in vitro response to injury analyses, including quantitative analysis, of migration in response to injury; and (3) in vitro quantitation of cell proliferation assays. The results of experiments performed are illustrated in FIGS. 1 to 4.
In addition, each of the three peptides of the invention were compared with regard to adult normal human epithelial keratinocyte migration.

[2] = system: Human Microvascular Endothelial Cells (HMVEC); assay: in vitro angiogenesis assay: tubule formation from HMVEC in Matrigel; type: cell-based; conditions: for induction of angiogenesis in vitro: general statement, no concentration
Description: FIG. 1 is an illustration of a comparison 0.5 nM of the peptide of SEQ ID NO: 1 (“UN1”) to a serum control sample in the formation of tubules from Human Microvascular Endothelial Cells (HMVEC) in Matrigel™ after 3 hours.
FIG. 2 is a graph illustrating a measure of angiogenesis in terms of total process length in Human Microvascular Endothelial Cells (HMVEC) with 0.4 nM and 250 nM of the SEQ ID NO: 1 (“UN1”).
FIG. 3 is a graph illustrating a measure of angiogenesis in terms of total process length in Human Microvascular Endothelial Cells (HMVEC) with 0.4 nM and 250 nM of the peptide of SEQ ID NO: 3 (“UN3”).
as §1
The peptide (SEQ. ID NO: 1 (“UN1”)) was compared to each of VEGF 4 ng/ml and Serum Control in an in vitro angiogenesis analysis.
The peptide (SEQ ID NO: 3 (“UN3”)) was also compared to VEGF and Serum Control in in vitro angiogenesis analysis.

TATSEYQTFFNPR [UN2] was tested, and the “relative wound closure via NHEK migration” value [1] was “significantly better”.
In the case of ELLESYIDRPTATSEYQTFFNPR [UN3], the “induction of angiogenesis in vitro” value [2] is reported as “induce angiogenesis in vitro”, the process length ([2]; in comparison to VEGF, peptide at 250 nM (FIG. 3)) is reported as “significant increase in process length” and the process length ([2]; in comparison with Serum Control, 0.4 nM and 250 nM (FIG. 3)) is reported as “significant increase in process length”. The “relative wound closure via NHEK migration” value [1] was “significantly better” and the “keratinocyte migration in response to injury in vitro” value [1] was “promote keratinocyte migrations”.
In the case of ELLESYIDR [UN1], the “formation of tubules (number and lengths of processes or tubules), in vitro angiogenesis” value ([2]; 0.5 nM peptide, HMVEC in Matrigel, after 3 hours, versus serum control (FIG. 1)) is reported as “significant induction of in vitro angiogenesis”, the “induction of angiogenesis in vitro” value [2] is reported as “induce angiogenesis in vitro” and the tubule formation ([2]; in comparison to Serum Control and VEGF 4 ng/ml (FIGS. 1 and 2)) is reported as “induced significant tubule formation”. The process length ([2]; in comparison to Serum Control and VEGF 4 ng/ml, 0.4 nM and 250 nM (FIG. 2)) was “significant tubule formation and process length”, the “relative wound closure via NHEK migration” value [1] was “significantly better” and the “keratinocyte migration in response to injury in vitro” value [1] was “promote keratinocyte migrations”.
